Results: article PMC7566913, “Dual Gene Delivery Reagents From Antiproliferative Alkylphospholipids for Combined Antitumor Therapy” (Frontiers in Chemistry, 2020)

How the values were obtained:
16HBE cells = assay: Cytotoxicity, MTT assay, 16HBE; assay type: cell-based, human; conditions: Homo sapiens, 24 h at 37°C
Protocol: The cells were exposed for a 24-h period to increasing concentration of the pro-APLs, ranging from 500 nM to 1 mM, and cell viability was assessed using the MTT colorimetric assay (Mosmann, [1983]). For the three cell lines, viability decreased in a dose-dependent manner in response to APLs and pro-APLs (Supplementary Figures 2–4). Using the best-fit regression curve method, the IC50 value (concentration that provokes 50% inhibition of the cell growth) was calculated for each compound (Table 4). The three cell lines responded to the compounds with varying sensitivities. […] This is attributed to enzyme-mediated hydrolysis of the pro-APL compounds in the complemented culture medium or in the intracellular compartment, competing with pure pH-controlled chemical hydrolysis. According to its structure, a pro-APL may or not be a substrate for specific lipases and, thus, may or not be hydrolyzed into the parent cytotoxic compound. […]
At confluency, cells were released […]
Cells were seeded into 96-well plates (Becton-Dickinson) at the required density (vide supra) in 100 µL of serum containing culture medium. […]
Mitochondrial activity measurements (MTT assay) was used to assess cytotoxicity of the compounds.
Lipid samples were prepared from a lipid film (3.6 µmol of compound evaporated from an ethanolic solution) hydrated with aqueous glucose 5 % and vigorously vortexed for 20 s before serial dilution in aqueous glucose 5 %. For addition of lipid samples to cell culture, part of the culture medium in the culture plates prepared the day before (25 µL) was removed and replaced by lipid samples (25 µL). Negative control was obtained by adding glucose 5 % to the cells instead of lipoplexes.
After a 24-h incubation period at 37 °C, culture supernatant was removed, cells were carefully washed with PBS and MTT (100 µL, 0.5 mg/mL) in complete culture medium was added. After a 1-h incubation period at 37 °C, the MTT sol ution was removed and DMSO (100 µL) was added to lyse cells and dissolve reduced MTT. Intensity of MTT reduction was then evaluated by measuring absorbance at 492 nm. Viability of cells treated with lipids or lipoplexes was expressed as the percentage of the absorbance measured in untreated cells. Value for each sample is the mean of triplicate determinations (± SD). IC50 values were determined within the 95 % confidence interval using nonlinear regression analysis with the GraphPad Prism software (GraphPad Software, San […]
All data are representative of a triplicate determination and are presented as the mean ± SD.
Statistical significance between treatments was assessed by one-way analysis of variance (ANOVA) followed by the Dunnett multiple comparison test, using the Kaleidagraph 4.5 software (Synergy Software, Reading, PA, USA). Data were considered as statistically significant for p value less than

H292 cells = assay: Antiproliferative effect of pUNO1-hTRAIL vs pCMV-Gluc lipoplexes, MTT, H292; assay type: cell-based, human; conditions: N/P 3, 1 eq. DOPE
Protocol: Cells were treated with lipoplexes prepared from pro-APLs ME12, PE12, and EE12, with increasing dose of pDNA (0.1–0.4 μg per well). The gold standard gene delivery reagent Lipofectamine® 2000 was assayed in parallel for comparison purpose. In order to distinguish the intrinsic cytotoxic effect of the in situ generated APLs from that resulting from TRAIL expression, pCMV-Gluc was assayed in parallel to pUNO1-hTRAIL. Using pCMV-Gluc, the observed cytotoxicity was assumed to result only from the APL antiproliferative activity, whereas results obtained with pUNO1-hTRAIL are a combination of TRAIL activity and APL antiproliferative effect. […] Though the temptation is to take it as an indicator that functional TRAIL was produced, the difference found was not always statistically significant. The activity profile of the three pro-APLs varied according to the cell line. […]
Figure 8 Antiproliferative effect of lipoplexes prepared from ME12 (A), PE12 (B), EE12 (C), and the two DNA plasmids pCMV-Gluc (light bars) and pUNO1-hTRAIL (dark bars), on the three cell lines. […] Lipofectamine®-based lipoplexes (0.1 μg plasmid/well) were prepared according to the optimized experimental conditions determined following the supplier's instructions. Cell viability was measured by the MTT assay. Basal mitochondrial activity measured in untreated cells is set at 100%. […]

Question: Which results are given for `CCCCCCCCCCCCCCCCCCOP(=O)(OCOC(=O)CCCCCCCCCCC)OC1CC[N+](C)(C)CC1.[Cl-]` (centres unmarked) [PE12, 4-((((Dodecanoyloxy)methoxy)(octadecyloxy)phosphoryl)oxy)-1,1-dimethylpiperidin-1-ium chloride]?
Answer: IC50 (16HBE cells): 231 ± 70 µM; Cell death specifically induced by TRAIL (H292 cells): ca. 45%
